Results from patent US11795190B2, “D-glycero-B-D-heptose 1-phosphate (HMP) conjugates and use for targeted immune modulation” (NATIONAL RESEARCH COUNCIL OF CANADA, priority 2017, dated 2023).

Test system: HCT 116 cells deficient in TIFA protein expression (TIFA KO)
Test: IL-8 ELISA in TIFA knockout HCT 116 cells
Assay type: cell-based, human
Details: TIFA KO HCT 116
Method: Wild type (WT) or TIFA knockout (TIFA KO) cells were treated with compounds in the presence of digitonin for 20 min, treatment was removed, cells were washed and then cultured in normal medium without the synthetic compounds for 6 hr before IL-8 levels in culture supernatants were measured by ELISA. (A) Cells were treated with water or 10 μg/mL of the indicated compound. Data are means±standard error mean of technical triplicates. (B) Cells were treated with the NOD1 agonist C12-iE-DAP (39.8 μM) or with two different molar concentrations of compounds (30 μM or 150 μM). Two batches of dd-β-HBP and dd-β-HMP synthesized independently of one another were tested (batch #1 and batch #2) to assess consistency of the chemical synthesis. Data are means±standard error mean of two (150 μM treatment) or three (all other treatments) independent experiments. Nod1 agonist: C12-iE-DAP (20 μg/ml, 39.8 μM); JS-12: D-glycero-D-manno-heptose; JS-2: D-glycero-D-manno-heptose 7-phosphate; JS-7:D-glycero-β-D-manno-heptose-phosphate; JS-8: d-glycero-α-d-manno-heptose-phosphate; JS-9: β-d-mannose phosphate; JS-6:d-glycero-β-d-manno heptose 1,7-biphosphate; JS-5: d-glycero-α-d-manno heptose 1,7-biphosphate.
FIG. 11. Stimulation of human colonic epithelial cells by compounds/products according to the invention. Human colonic epithelial cells (HCT 116) that were either wild type (WT) or deficient in TIFA protein expression (knockout, KO) were stimulated for 20 minutes in permeabilization buffer (5 μg/mL digitonin) in the presence of water or 10 μg/mL, 30 μg/mL, or 50 μg/mL of indicated synthetic compounds according to the invention. Treatment was removed, cells were washed, and cells were incubated for 6 hours in complete media before IL-8 levels in culture supernatants was measured by ELISA. The results are the mean±standard error of the mean of three technical replicates. JS-10: 7-O-(Aminoethyl)-D-glycero-β-D-manno-heptopyranose phosphate; JS-11: 7-O-(Aminoethyl) -D-glycero-D-manno-heptopyranose; JS-12: D-glycero-D-manno-heptose; Js-13: pH-Rhodo -7-O-(aminoethyl)-D-glycero-β-D-manno-heptopyranose phosphate.
(§1) FIG. 13. Stimulation of human colonic epithelial cells by compounds/products according to the invention. Human colonic epithelial cells (HCT 116) that were either wild type (WT) or deficient in TIFA protein expression (knockout, TIFA KO) were stimulated for 20 minutes in permeabilization buffer (5 μg/mL digitonin) in the presence of water, 20 μg/mL of the Nod1 agonist C12-iE-DAP (39.8 μM, which induces inflammation in a TIFA-independent manner) or 30 μM or 150 μM of synthetic compound according to the invention. Treatment was removed, cells were washed, and cells were incubated for 6 hours in complete media before IL-8 levels in culture supernatants were measured by ELISA. The results are the mean±standard error of the mean of two (150 μM treatment) or three (all other treatments) independent experiments. #=none detected, JS-10: 7-O-(Aminoethyl)-d-glycero-β-d-manno-heptopyranose phosphate; JS-14: Biotin-7-O-(aminoethyl)-d-glycero-β-d-manno-heptopyranose phosphate, Nod1 agonist: C12-iE-DAP (20 μg/ml, 39.8 μM).
as §1, with “16.” for “13.”, “of” for “of the mean of two (150 μM treatment) or”, “technical replicates. […]” for “(all other treatments) independent experiments. #=none detected, JS-10: 7-O-(Aminoethyl)-d-glycero-β-d-manno-heptopyranose phosphate; JS-14: Biotin-7-O-(aminoethyl)-d-glycero-β-d-manno-heptopyranose phosphate, Nod1 agonist: C12-iE-DAP (20 μg/ml, 39.8 μM).”

Question: For `NCCOC[C@@H](O)C1O[C@@H](OP(=O)([O-])[O-])C(O)[C@@H](O)[C@@H]1O.[Na+].[Na+]` (stereo partly drawn) [JS-10a, 7-O-(Aminoethyl)-D-glycero-β-D-manno-heptopyranose phosphate], which “activity in TIFA KO cells (IL-8), TIFA dependence” value (FIG. 11, 10, 30 or 50 μg/mL) is on record?
Answer: The value was “relative absence of activity”.

Question: And the “activity in TIFA KO cells (IL-8), TIFA dependence” value (FIG. 13, 30 μM or 150 μM (Nod1 agonist 39.8 μM))?
Answer: The value was “relative absence of activity”.
